From paper PMC9020739, “Identification of a two-component regulatory system involved in antimicrobial peptide resistance in Streptococcus pneumoniae” (PLoS Pathogens, 2022)
Where a SMILES comes first, the peptide text is derived from it. Bridges are numbered along the chain shown (N, C = ends). [ ]: non-standard residue; d: D form. The star is where a group is joined. X1 = CC[C@H](C)CCCCC(=O)*; Dab = NCC[C@H](N)C(=O)O

Key:
Format in all cases: cell-based, Streptococcus pneumoniae
S. pneumoniae R6 ΔbceAB = settings: R6 strain; 2-fold broth dilution, Todd-Hewitt medium, 37°C, 15 h; two to four biological replicates, each technical duplicates
Protocol: (§1) The MIC of various antimicrobial peptides for R6, R800 and D39 strains was determined by classical 2-fold broth dilution method. Cells were first grown in Todd-Hewitt medium at 37°C without agitation and in anaerobic conditions until the absorbance reaches approximatively 0.3. Complementation strains were grown with 0.5 μM ComS inducer until the appropriate OD. Cells were then diluted at final OD600nm = 0.002 in 96-well plates containing 300 μL of Todd-Hewitt medium (and 2 μM ComS inducer for the complementation strains) with serial dilutions of antimicrobial peptides. Pneumococcal growth was monitored by a microplate reader (TECAN) at 37°C without agitation. The absorbance was followed at 600 nm every 15 min for 15 h.

S. pneumoniae R6 WT = settings: R6 strain; for Minimum Inhibitory Concentration, WT: 2-fold broth dilution, Todd-Hewitt medium, 96-well plates, start OD600 0.002, 37°C, A600 followed 15 h, two to four biological replicates, each technical duplicates; for Fold sensitivity displayed by the KO strains: KO strains versus WT MIC
Protocol: as §1

S. pneumoniae R6 Δtcs01 = settings: R6 strain; 2-fold broth dilution, Todd-Hewitt medium, 37°C, 15 h; two to four biological replicates, each technical duplicates
Protocol: as §1

[1] = system: S. pneumoniae R6 ΔbceAB/tcs01; settings: R6 strain; 2-fold broth dilution, Todd-Hewitt medium, 37°C, 15 h; two to four biological replicates, each technical duplicates
Protocol: as §1

| Compound | Minimum Inhibitory Concentration, ΔbceAB (S. pneumoniae R6 ΔbceAB) [µg/mL] | Minimum Inhibitory Concentration, WT (S. pneumoniae R6 WT) [µg/mL] | Fold sensitivity displayed by the KO strains (S. pneumoniae R6 WT) | Minimum Inhibitory Concentration, Δtcs01 (S. pneumoniae R6 Δtcs01) [µg/mL] | Minimum Inhibitory Concentration, ΔbceAB/tcs01 [1] [µg/mL] |
| --- | --- | --- | --- | --- | --- |
| CC[C@H](C)CCCCC(=O)N[C@@H](CCN)C(=O)N[C@H](C(=O)N[C@@H](CCN)C(=O)N[C@H]1CCNC(=O)[C@H]([C@@H](C)O)NC(=O)[C@H](CCN)NC(=O)[C@H](CCN)NC(=O)[C@H](CC(C)C)NC(=O)[C@@H](CC(C)C)NC(=O)[C@H](CCN)NC1=O)[C@@H](C)O [colistin] (X1-[Dab]T[Dab][Dab][Dab][dL]L[Dab][Dab]T; lactam 4-C (inferred); N-terminus assumed) | 256 | 256 | 1 | 256 | 256 |
| CC[C@H](C)[C@H](N)C(=O)N[C@@H](CC(N)=O)C(=O)N[C@@H](CC(C)C)C(=O)N[C@@H](CCCCN)C(=O)N[C@@H](C)C(=O)N[C@@H](CC(C)C)C(=O)N[C@@H](C)C(=O)N[C@@H](C)C(=O)N[C@@H](CC(C)C)C(=O)N[C@@H](C)C(=O)N[C@@H](CCCCN)C(=O)N[C@@H](CCCCN)C(=O)N[C@H](C(=O)N[C@@H](CC(C)C)C(N)=O)[C@@H](C)CC [mastoporan] | – | – | 1 | – | – |
| Microbisporicin [Microbisporicin (NAI-107)] | 0.008 | 0.032 | 4 | 0.008 | 0.008 |
| Planosporicin [Planosporicin (NAI-97)] | 2 | 16 | 8 | 2 | 2 |
| gramicidin | 0.016 | 0.016 | 1 | 0.016 | 0.016 |
